The nature of data set [1]: in vivo. The following applies: rat, Wistar Han rats; for AUC(0-inf): plasma LC-MS, mean of three animals per point. The procedure: (§1) C34-PEG4-Chol first in man – Supplementary Information
(§2) Supplementary Information 2:
(§3) Preclinical Pharmacokinetics of C34-PEG4-Chol […]
(§4) C34-PEG4-Chol was formulated in 10 mM phosphate buffered saline (pH 7.2). The concentration of C34-PEG4-Chol in plasma samples was determined by LC-MS as previously […]
(§5) (1 picture or pasted object on this page, not shown here) […]
Figure S3. Pharmacokinetics of C34-PEG4-Chol in rats 3.5 mg/kg or 1.0 mg/kg (SC and IV, respectively) of C34-PEG4-Chol in 10mM phosphate buffered saline (PBS) were administered to Wistar Han rats: volume of administration 0.5 mL/kg. The concentration of the dosing solution was determined immediately after dosing with the same analytical method utilized to monitor peptide plasma concentration with time, and the analytical curves were adjusted accordingly. Each data point is the mean of three animals.
Table S3. Calculated pharmacokinetics parameters of C34-PEG4-Chol in rats, following intravenous (IV) and subcutaneous (SC) administration.

Data set [2] is described as follows: Repeat-dose toxicity study in mice. The class given is in vivo. The following applies: mouse, in vivo, sc, subcutaneous, daily for 14 days, 7-day recovery, read-out: No-observed-adverse-effect-level (NOAEL). The procedure: (§6) Pre-clinical toxicology studies were conducted in 2 species (rodent/mice and non-rodent/dogs). Multiple high doses of C34-PEG4-Chol, up to 12 mg/kg or 10 x the maximum proposed human dose, were administered daily in mice and twice weekly (the intended frequency in humans) in dogs for 14 days, with a 7-day recovery period for both species. […] Toxicology results were analysed independently by the Medicines and Healthcare Regulatory Authority (MHRA), UK before a decision was made to proceed with trial in humans.
(§7) Repeat-dose toxicity studies were conducted in mice (n = 20 at 6 mg/kg/day, n = 20 at 12 mg/kg/day) and dogs (n = 6 at 6 mg/kg/day, n = 6 at 12 mg/kg/day). The subcutaneous route of administration was selected for both species. The highest dose of 12 mg/kg/day was based on the maximal achievable dose with the formulation, and corresponded to 10x the maximum proposed human dose (80 mg, 1.15 mg/kg). No premature decedents occurred in either species. Following observation, animals were euthanised.

In the next data set the test system is mice. Description: Repeat-dose toxicity study in mice. The class given is in vivo. The conditions noted are these: subcutaneous. As to the method: as §6, §7
The nature of data set [3]: in vivo. The conditions noted are these: mouse, C57BL/6 mice; for AUC(0-inf): plasma LC-MS, mean of three animals per point. As to the method: as §1, §2, §3, §4
The PK of C34-PEG4-Chol in C57BL/6 mice following intravenous (IV) and subcutaneous (SC) dosing is shown in […]
Figure S2: Pharmacokinetics of C34-PEG4-Chol in mice. 3.5 mg/kg or 1.0 mg/kg (SC and IV, respectively) of C34-PEG4-Chol in 10mM phosphate buffered saline (PBS) were administered to C57BL/6 mice: volume of administration 5 mL/kg and 2 mL/kg for SC and IV administration, respectively. The concentration of the dosing solution was determined immediately after dosing with the same analytical method utilized to monitor peptide plasma concentration with time, and the analytical curves were adjusted accordingly (SC dose 0.56 mg/mL, theor.
0.5 mg/mL; IV dose 0.62 mg/mL, theor. 0.7 mg/mL). Each data point is the mean of three animals.
as §5

The mark [4] stands for this setting: IV 1.0 mg/kg, read-out: t½ (converted).

Where two headings read alike, the source gives them in different places.

Regarding `CC[C@H](C)[C@H](NC(=O)[C@H](CC(C)C)NC(=O)[C@H](CO)NC(=O)[C@H](Cc1c[nH]cn1)NC(=O)[C@@H](NC(=O)[C@H](CC(C)C)NC(=O)[C@H](CO)NC(=O)[C@@H](NC(=O)[C@H](Cc1ccc(O)cc1)NC(=O)[C@H](CC(N)=O)NC(=O)[C@H](CC(N)=O)NC(=O)[C@@H](NC(=O)[C@H](CCC(=O)O)NC(=O)[C@H](CCCNC(=N)N)NC(=O)[C@H](CC(=O)O)NC(=O)[C@H](Cc1c[nH]c2ccccc12)NC(=O)[C@H](CCC(=O)O)NC(=O)[C@H](CCSC)NC(=O)[C@H](Cc1c[nH]c2ccccc12)NC(C)=O)[C@@H](C)CC)[C@@H](C)O)[C@@H](C)CC)C(=O)N[C@@H](CCC(=O)O)C(=O)N[C@@H](CCC(=O)O)C(=O)N[C@@H](CO)C(=O)N[C@@H](CCC(N)=O)C(=O)N[C@@H](CC(N)=O)C(=O)N[C@@H](CCC(N)=O)C(=O)N[C@@H](CCC(N)=O)C(=O)N[C@@H](CCC(=O)O)C(=O)N[C@@H](CCCCN)C(=O)N[C@@H](CC(N)=O)C(=O)N[C@@H](CCC(=O)O)C(=O)N[C@@H](CCC(N)=O)C(=O)N[C@@H](CCC(=O)O)C(=O)N[C@@H](CC(C)C)C(=O)N[C@@H](CC(C)C)C(=O)NCC(=O)N[C@@H](CO)C(=O)NCC(=O)N[C@@H](CSCC(=O)NCCOCCOCCOCCOCCC(=O)O[C@H]1CC[C@@]2(C)C(=CC[C@H]3[C@@H]4CC[C@H]([C@H](C)CCCC(C)C)[C@@]4(C)CC[C@@H]32)C1)C(N)=O` [C34-PEG4-Chol], the values for the clearance in the data set “in vivo [1]” (IV 1.0 mg/kg) and in the data set “in vivo [3]” (IV 1.0 mg/kg) were 0.48 mL/min/kg and 0.29 mL/min/kg, respectively. The AUC(0-inf) came to 6.6 µM·h in the data set “in vivo [1]” (IV 1.0 mg/kg in 10 mM PBS), 1.86 µM·h in “in vivo [1]” (SC 3.5 mg/kg in 10 mM PBS), 10.8 µM·h in “in vivo [3]” (IV 1.0 mg/kg in 10 mM PBS) and 11.5 µM·h in the data set “in vivo [3]” (SC 3.5 mg/kg in 10 mM PBS). Moreover, the Vd in the data set “in vivo [1]” (IV 1.0 mg/kg, read-out: Vdss) stood at 0.08 L/kg; in “in vivo [3]” (IV 1.0 mg/kg, read-out: Vdss) it was 0.05 L/kg. Further, the half-life is 2.18 h in the data set “in vivo [1]” (setting [4]) and 1.97 h in “in vivo [3]” (setting [4]). Moreover, the Cmax was determined as 260 nM in the data set “in vivo [1]” (SC 3.5 mg/kg) and 1120 nM in the data set “in vivo [3]” (SC 3.5 mg/kg). Further, the Tmax in “in vivo [1]” (SC 3.5 mg/kg) is 3.3 h; in “in vivo [3]” (SC 3.5 mg/kg), 5.3 h. The bioavailability was 7.97% in “in vivo [1]” (SC 3.5 mg/kg) and 30.3% in the data set “in vivo [3]” (SC 3.5 mg/kg). Besides, the NOAEL at 336 h in data set [2] was found to be 12 mg/kg/day. The “Injection site reactions (ISRs)” value in the data set on mice is given as “had not been observed”. The Tolerability result in the data set on mice (up to 12 mg/kg/day for 14 days) is “well tolerated”.

As a reminder, the clearance is a measure of how efficiently the substance is removed, as volume per time. A word on the AUC(0-inf): it is the area under the concentration-time curve extrapolated to infinity. The low end stands for less exposure, the high end for more exposure. For orientation: Cmax means the maximum level reached in the sampled fluid or tissue. In general, Tmax refers to the time from dosing to the highest level. One may read the bioavailability as dose-corrected exposure relative to a reference, in per cent. Broadly, the NOAEL is the highest tested level that showed no adverse finding.

Source of the values: publication PMC5572697, “A first-in-human study of the novel HIV-fusion inhibitor C34-PEG4-Chol” (Scientific Reports, 2017).
